Source: ChEMBL document CHEMBL5214962, “Improving lipophilicity of 5-(1-acetyl-5-phenylpyrazolidin-3-ylidene)-1,3-dimethylbarbituric acid increases its efficacy to activate hypoxia-inducible factors” (Bioorg Med Chem, 2022)
The source made the active and inactive calls. The rule behind the calls is not given here.

What was measured:
SK-N-BE(2)-C = assay: Activation of HIF-alpha transcriptional activity in human SK-N-BE(2)-C expressing HRE-NLuc reporter system assessed as compound concentration require for 5 fold increase in NLuc luciferase activity incubated for 24 hrs by Nano-Glo luciferase assay; assay type: cell-based
[1] = Cytotoxicity against human SK-N-BE(2)-C expressing HRE-NLuc reporter system assessed as reduction in cell viability incubated for 24 hrs by CCK-8 assay; assay type: toxicity, cell-based; conditions: SK-N-BE(2)-C cells expressing HRE-NLuc reporter system, read-out: LC50
[2] = target: Hypoxia-inducible factor 1-alpha (Homo sapiens) (UniProt Q16665); assay: Induction of HIF-1alpha stabilization in human Hep3B cells assessed as HIF-1alpha level at 1 to 100 uM incubated for 24 hrs by immunoblot analysis; assay type: cell-based; conditions: filed as activator, dose 1-100 µM, DDE = dose-dependent effect
[3] = target: Endothelial PAS domain-containing protein 1 (Homo sapiens) (UniProt Q99814); assay: Induction of HIF-2alpha stabilization in human Hep3B cells assessed as […] at 1 to 100 uM incubated for 24 hrs by immunoblot analysis; assay type: cell-based; conditions: filed as activator, dose 1-100 µM, DDE = dose-dependent effect
[4] = target: Hypoxia-inducible factor 1-alpha (Homo sapiens) (UniProt Q16665); assay: Induction of HIF-1alpha stabilization in human Hep3B cells assessed as HIF-1alpha level at 16 to 1000 nM incubated for 24 hrs by immunoblot analysis; assay type: cell-based; conditions: filed as activator, dose 16-1000 nM, DDE = dose-dependent effect
[5] = target: Endothelial PAS domain-containing protein 1 (Homo sapiens) (UniProt Q99814); assay: Induction of HIF-2alpha stabilization in human Hep3B cells assessed as […] at 16 to 1000 nM incubated for 24 hrs by immunoblot analysis; assay type: cell-based; conditions: filed as activator, dose 16-1000 nM, DDE = dose-dependent effect
Hep3B [6] = assay: Activation of HIF dependent pathway in human Hep3B cells assessed as increase in CA9 mRNA expression level at 10 to 100 uM incubated for 24 hrs by RT-qPCR analysis; assay type: cell-based; conditions: filed as activator, dose 10-100 µM
Hep3B [7] = assay: Activation of HIF dependent pathway in human Hep3B cells assessed as increase in EPO mRNA expression level at 10 to 100 uM incubated for 24 hrs by RT-qPCR analysis; assay type: cell-based; conditions: filed as activator, dose 10-100 µM

Sequence of Hypoxia-inducible factor 1-alpha (Homo sapiens) (Q16665 whole entry, looked up, the tested form may be a part): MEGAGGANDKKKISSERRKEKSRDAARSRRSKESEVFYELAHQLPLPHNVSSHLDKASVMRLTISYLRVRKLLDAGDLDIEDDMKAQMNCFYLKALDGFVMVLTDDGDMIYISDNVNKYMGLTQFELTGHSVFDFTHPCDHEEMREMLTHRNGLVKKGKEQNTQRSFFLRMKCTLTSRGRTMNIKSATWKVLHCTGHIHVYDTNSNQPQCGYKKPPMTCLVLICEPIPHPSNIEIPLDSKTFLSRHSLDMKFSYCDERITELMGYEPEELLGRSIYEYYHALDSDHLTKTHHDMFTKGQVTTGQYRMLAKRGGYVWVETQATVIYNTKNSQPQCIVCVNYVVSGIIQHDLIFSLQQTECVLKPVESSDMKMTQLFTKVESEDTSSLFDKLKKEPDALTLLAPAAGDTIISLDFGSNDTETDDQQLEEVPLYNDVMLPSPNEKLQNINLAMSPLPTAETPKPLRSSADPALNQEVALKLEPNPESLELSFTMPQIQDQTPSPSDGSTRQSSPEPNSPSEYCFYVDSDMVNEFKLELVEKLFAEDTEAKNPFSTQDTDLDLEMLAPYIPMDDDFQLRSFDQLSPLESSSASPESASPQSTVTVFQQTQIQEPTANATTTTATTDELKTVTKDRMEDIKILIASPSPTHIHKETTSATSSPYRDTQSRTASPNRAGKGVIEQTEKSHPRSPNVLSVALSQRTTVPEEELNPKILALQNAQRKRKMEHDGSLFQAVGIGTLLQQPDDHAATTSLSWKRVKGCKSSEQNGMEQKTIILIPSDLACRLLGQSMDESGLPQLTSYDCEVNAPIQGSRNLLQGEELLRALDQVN
Sequence of Endothelial PAS domain-containing protein 1 (Homo sapiens) (Q99814 whole entry, the tested form may be a part): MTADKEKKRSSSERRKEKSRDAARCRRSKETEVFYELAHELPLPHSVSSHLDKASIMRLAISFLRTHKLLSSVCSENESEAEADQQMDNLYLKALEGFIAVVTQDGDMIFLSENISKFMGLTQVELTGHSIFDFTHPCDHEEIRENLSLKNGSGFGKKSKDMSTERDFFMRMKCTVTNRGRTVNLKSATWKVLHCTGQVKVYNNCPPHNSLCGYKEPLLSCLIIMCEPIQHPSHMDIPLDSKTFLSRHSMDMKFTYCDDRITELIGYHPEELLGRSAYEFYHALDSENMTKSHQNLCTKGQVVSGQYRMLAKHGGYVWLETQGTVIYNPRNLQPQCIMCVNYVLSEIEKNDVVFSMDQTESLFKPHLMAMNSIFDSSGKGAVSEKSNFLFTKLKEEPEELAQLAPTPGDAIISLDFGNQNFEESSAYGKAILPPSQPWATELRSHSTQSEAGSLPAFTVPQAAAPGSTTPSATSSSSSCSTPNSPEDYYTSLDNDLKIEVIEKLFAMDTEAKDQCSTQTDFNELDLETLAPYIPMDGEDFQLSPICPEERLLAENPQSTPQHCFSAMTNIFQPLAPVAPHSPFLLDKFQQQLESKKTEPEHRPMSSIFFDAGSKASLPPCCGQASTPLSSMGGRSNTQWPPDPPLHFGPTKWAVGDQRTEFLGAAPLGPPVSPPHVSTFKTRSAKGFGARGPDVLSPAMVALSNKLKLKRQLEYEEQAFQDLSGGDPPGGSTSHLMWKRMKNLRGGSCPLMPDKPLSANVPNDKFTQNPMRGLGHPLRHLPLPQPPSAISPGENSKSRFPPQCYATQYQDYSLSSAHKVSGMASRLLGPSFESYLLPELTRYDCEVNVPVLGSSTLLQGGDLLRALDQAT

Row | Compound | Activity (SK-N-BE(2)-C; filed as activator) [µM] | CC50 at 24 h [1] [µM] | also measured
1 | CCCCCC(=O)N1NC(=C2C(=O)N(C)C(=O)N(C)C2=O)CC1c1ccccc1 (centres undefined) | 0.96 | > 100 | 
2 | CC(C)C(=O)N1NC(=C2C(=O)N(C)C(=O)N(C)C2=O)CC1c1ccccc1 (centres undefined) | 8.55 | > 100 | 
3 | CC(=O)N1NC(=C2C(=O)N(C)C(=O)N(C)C2=O)CC1c1ccc(F)cc1 (centres undefined) | 16.5 | > 100 | 
4 | CC(=O)N1NC(=C2C(=O)N(C)C(=O)N(C)C2=O)CC1c1ccc2ccccc2c1 (centres undefined) | 7.67 | > 100 | 
5 | CCCC(=O)N1NC(=C2C(=O)N(C3CCCCC3)C(=O)N(C3CCCCC3)C2=O)CC1c1ccccc1 (centres undefined) | 0.441 | > 100 | Activity [2]: Dde; Activity [3]: Dde; Activity [4]: Dde; Activity [5]: Dde; Activity (Hep3B [6]): Active; Activity (Hep3B [7]): Active
6 | COc1ccc(C2CC(=C3C(=O)N(C)C(=O)N(C)C3=O)NN2C(C)=O)cc1 (centres undefined) | 19.5 | > 100 | 
7 | CC(=O)N1NC(=C2C(=O)N(C)C(=O)N(C)C2=O)CC1c1ccc(Oc2ccccc2)cc1 (centres undefined) | 6.82 | > 100 | 
8 | CCCC(=O)N1NC(=C2C(=O)N(C)C(=O)N(C)C2=O)CC1c1ccccc1 (centres undefined) | 4.85 | > 100 | 
9 | CCC(=O)N1NC(=C2C(=O)N(C3CCCCC3)C(=O)N(C3CCCCC3)C2=O)CC1c1ccccc1 (centres undefined) | 0.126 | > 100 | 
10 | CC(C)C(=O)N1NC(=C2C(=O)N(C3CCCCC3)C(=O)N(C3CCCCC3)C2=O)CC1c1ccccc1 (centres undefined) | 0.364 | > 100 | 
11 | CCCCCCCCCC(=O)N1NC(=C2C(=O)N(C)C(=O)N(C)C2=O)CC1c1ccccc1 (centres undefined) | 0.153 | > 100 | 
12 | Cc1nc(C(=O)NCC(=O)O)c(O)c2ccc(Oc3ccccc3)cc12 |  |  | Activity [2]: Dde; Activity [3]: Dde
13 | CC(=O)N1NC(=C2C(=O)N(C3CCCCC3)C(=O)N(C3CCCCC3)C2=O)CC1c1ccccc1 (centres undefined) | 0.533 | > 100 | 
14 | CC(=O)N1NC(=C2C(=O)N(C)C(=O)N(C)C2=O)CC1c1ccc(C)cc1 (centres undefined) | 5.84 | > 100 | 
15 | CCCCCCCCc1ccc(C2CC(=C3C(=O)N(C)C(=O)N(C)C3=O)NN2C(C)=O)cc1 (centres undefined) | 12.9 | > 100 | 
16 | CC(=O)N1NC(=C2C(=O)N(C)C(=O)N(C)C2=O)CC1c1ccc(-c2ccccc2)cc1 (centres undefined) | 3.88 | > 100 | 
17 | CCCCCCCCCC(=O)N1NC(=C2C(=O)N(C3CCCCC3)C(=O)N(C3CCCCC3)C2=O)CC1c1ccccc1 (centres undefined) |  | > 100 | Activity (SK-N-BE(2)-C): > 100 µM
18 | CCC(=O)N1NC(=C2C(=O)N(C)C(=O)N(C)C2=O)CC1c1ccc(-c2ccccc2)cc1 (centres undefined) | 3.87 | > 100 | 
19 | CCC(=O)N1NC(=C2C(=O)N(C)C(=O)N(C)C2=O)CC1c1ccccc1 (centres undefined) | 6.53 | > 100 | 
20 | CC(=O)N1NC(=C2C(=O)N(C)C(=O)N(C)C2=O)CC1c1ccc(Cl)cc1 (centres undefined) | 9.1 | > 100 | 
21 | CCCCCC(=O)N1NC(=C2C(=O)N(C3CCCCC3)C(=O)N(C3CCCCC3)C2=O)CC1c1ccccc1 (centres undefined) | 2.41 | > 100 | 
22 | CC(=O)N1NC(=C2C(=O)N(C)C(=O)N(C)C2=O)CC1c1ccccc1 (centres undefined) | 14.3 | > 100 | Activity [2]: Dde; Activity [3]: Dde
23 | COc1cccc(C2CC(=C3C(=O)N(C)C(=O)N(C)C3=O)NN2C(C)=O)c1Cl (centres undefined) | 26.1 | > 100 | 
